According to patent US20250320205A1, “STAT6 DEGRADERS” (Gilead Sciences, Inc., priority 2024, published 2025):

What was measured:
STAT6 = molecular target: T1, STAT6 (Homo sapiens, UniProt P42226); experiment: STAT6 Degrader Assay (HiBiT based, HeLa LgBiT clone 4.14 cells); assay type: cell-based; conditions: for DC50: geometric mean across assay runs and compound batches, DC50 provided for test compounds with >80% Emax, read-out: STAT6 degradation DC50
T1 construct: These cells express endogenous STAT6; host or cells: HeLa LgBiT clone 4.14 (CRISPR knock-in of HiBiT into the endogenous STAT6 gene)
T1 sequence (P42226 1-847): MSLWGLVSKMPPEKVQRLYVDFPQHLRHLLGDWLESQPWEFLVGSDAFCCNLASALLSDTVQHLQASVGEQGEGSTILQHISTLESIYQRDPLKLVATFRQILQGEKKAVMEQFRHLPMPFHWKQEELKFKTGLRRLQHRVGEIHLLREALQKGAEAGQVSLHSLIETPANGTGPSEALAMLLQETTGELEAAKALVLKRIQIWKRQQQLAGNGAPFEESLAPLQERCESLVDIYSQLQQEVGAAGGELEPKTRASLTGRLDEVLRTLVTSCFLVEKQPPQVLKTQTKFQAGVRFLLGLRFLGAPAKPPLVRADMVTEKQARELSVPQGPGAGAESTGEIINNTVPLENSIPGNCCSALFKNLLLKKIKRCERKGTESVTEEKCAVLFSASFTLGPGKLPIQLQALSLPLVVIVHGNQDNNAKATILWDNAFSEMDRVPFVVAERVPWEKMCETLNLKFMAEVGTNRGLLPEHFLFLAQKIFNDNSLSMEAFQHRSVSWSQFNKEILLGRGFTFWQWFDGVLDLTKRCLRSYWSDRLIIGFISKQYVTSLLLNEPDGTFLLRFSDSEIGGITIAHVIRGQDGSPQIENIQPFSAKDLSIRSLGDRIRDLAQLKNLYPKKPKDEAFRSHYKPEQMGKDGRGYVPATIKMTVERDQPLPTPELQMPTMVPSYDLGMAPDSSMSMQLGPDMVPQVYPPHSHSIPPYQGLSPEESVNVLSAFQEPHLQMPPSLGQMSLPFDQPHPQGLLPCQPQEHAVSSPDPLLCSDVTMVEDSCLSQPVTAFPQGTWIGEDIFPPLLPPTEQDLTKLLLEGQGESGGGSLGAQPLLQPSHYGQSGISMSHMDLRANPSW
Outline: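 HeLa LgBiT clone 4.14 with CRISPR HiBiT-tagged endogenous STAT6, 5000 cells/well, compound exposure 4-24 h at 37° C. Residual STAT6 read as Nano-Glo luminescence after 0.5 h. 50 μM terfenadine set 100% degradation; DC50 in nM.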

[1] = test system: Eotaxin-3 (CCL26) release; experiment: Human Whole Blood Eotaxin-3 Assay (IL-4 stimulated); assay type: cell-based; conditions: geometric mean across assay runs and compound batches, EC50 provided for test compounds with >80% Emax
Procedure: This was a human whole blood assay using recombinant human Interleukin 4 to stimulate the blood and measuring the ability of the test compounds to inhibit eotaxin-3 release. The biological activities of the test compounds have been tested in human whole blood stimulated with IL-4 measuring Eotaxin-3 release. The test compounds were added to 384 well clear flat-bottom plate in a 4-fold serial dilution in triplicates using a liquid handler. Human whole blood stabilized in lithium-heparin tubes was added in a volume of 65 μL per well, resulting in a final DMSO concentration of 0.5%. The plate is incubated for 2 h at 37° C. under 5% CO2/95% air. Subsequently, 5 μL of recombinant human IL-4 (R&D Systems, cat #204-ILB) was added to the wells to a final concentration of 400 pM. The plate was incubated for 48 h at 37° C. under 5% CO2/95% air. The plate was spun down for 10 minutes at 500×g and 20 μL supernatant was harvested and transferred to a 384 well v-bottom plate using a liquid handler and stored at −20° C. until further analysis. 10 μL supernatant was used to measure the level of Eotaxin-3 (CCL26) using Human Eotaxin-3 MSD kit from Mesocsale (Cat #K251UEK-4). The assay was performed according to the manufacture instructions.

SMILES: CNc1ccn(-c2ccnc3c2cc(CN2CCC(c4c(F)cc(C(=O)N5CCC(CN6CCN(c7ccc(NC8CCC(=O)NC8=O)cc7F)CC6)CC5)cc4F)CC2)n3C)c(=O)c1 (centres unmarked) [Example 2g107, 3-((4-(4-((1-(3,5-difluoro-4-(1-((1-methyl-4-(4-(methyl-amino)-2-oxopyridin-1(2H)-yl)-1H-pyrrolo[2,3-b]pyridin-2-yl)methyl)piperidin-4-yl)-benzoyl)piperidin-4-yl)meth-yl)piperazin-1-yl)-3-fluoro-phenyl)amino)piperidine-2,6-dione]
- DC50 (STAT6): 25.3 nM
- EC50 ([1]; Homo sapiens): 26.8 nM

SMILES: CNc1cc(=O)n(-c2ccnc3c2cc(CN2CC=C(c4c(F)cc(C(=O)N5CCC(CN6CCN(c7ccc(NC8CCC(=O)NC8=O)cc7F)CC6)CC5)cc4F)CC2)n3C)cc1F (centres unmarked) [Example 2g65, 3-((4-(4-((1-(3,5-difluoro-4-(1-((4-(5-fluoro-4-(methyl-amino)-2-oxopyridin-1(2H)-yl)-1-methyl-1H-pyrrolo[2,3-b]pyridin-2-yl)methyl)-1,2,3,6-tetrahydropyridin-4-yl)benzoyl)piperidin-4-yl)-methyl)piperazin-1-yl)-3-fluorophenyl)amino)piperi-dine-2,6-dione]
- DC50 (STAT6): 120 nM
- EC50 ([1]; Homo sapiens): 408 nM

SMILES: CNc1ccn(-c2ccnc3c2cc([C@H](C)N2CC=C(c4c(C)cc(C(=O)N5CCC(CN6CCN(c7ccc(N[C@@H]8CCC(=O)NC8=O)c(OC)c7)CC6)CC5)cc4F)CC2)n3C)c(=O)c1 (single isomer, unassigned) [Example 2g127]
- DC50 (STAT6): 20.8 nM
- EC50 ([1]; Homo sapiens): 9.3 nM

SMILES: C[C@@H](c1cc2c(-n3ccc4c(c3=O)CCN4)ccnc2n1C)N1CCC(c2ccc(C(=O)N3CCC(CN4CCN(c5ccc(NC6CCC(=O)NC6=O)cc5F)CC4)CC3)cc2)CC1 (stereo partly drawn) [Example 2c29, 3-((3-fluoro-4-(4-((1-(4-(1-((S)-1-(1-methyl-4-(4-oxo-1,2,3,4-tetrahydro-5H-pyr-rolo[3,2-c]pyridin-5-yl)-1H-pyrrolo[2,3-b]pyridin-2-yl)-ethyl)piperidin-4-yl)benzoyl)-piperidin-4-yl)methyl)piper-azin-1-yl)phenyl)amino)piper-idine-2,6-dione]
- Emax (STAT6; HeLa, maximal STAT6 degradation): 70 to 80%
- EC50 ([1]; Homo sapiens): 15.7 nM

SMILES: C[C@@H](c1cc2c(-n3ccc4c(c3=O)CCN4)ccnc2n1C)N1CCC(c2ccc(C(=O)N3CCN(CC4CCN(c5ccc(NC6CCC(=O)NC6=O)cc5F)CC4)CC3)cc2)CC1 (stereo partly drawn) [Example 2g53, 3-((3-fluoro-4-(4-((4-(4-(1-((S)-1-(1-methyl-4-(4-oxo-1,2,3,4-tetrahydro-5H-pyrrolo [3,2-c]pyridin-5-yl)-1H-pyrrolo[2,3-b]pyridin-2-yl)-ethyl)piperidin-4-yl)benzoyl)-piperazin-1-yl)methyl)piperi-din-1-yl)phenyl)amino)piperi-dine-2,6-dione]
- DC50 (STAT6): 47.8 nM
- EC50 [1]: 63.1 nM

SMILES: CNc1cc(=O)n(-c2ccnc3c2cc([C@H](C)N2CCC(c4c(F)cc(C(=O)N5CCn6nc(CN7CCC(c8ccc(NC9CCC(=O)NC9=O)cc8F)CC7)cc6C5)cc4F)CC2)n3C)cc1F (stereo partly drawn) [Example 2g111, 3-((4-(1-((5-(3,5-difluoro-4-(1-((S)-1-(4-(5-fluoro-4-(methylamino)-2-oxopyridin-1(2H)-yl)-1-methyl-1H-pyrrolo[2,3-b]pyridin-2-yl)-ethyl)piperidin-4-yl)benzoyl)-4,5,6,7-tetrahydropyrazolo [1,5-a]pyrazin-2-yl)methyl)-piperidin-4-yl)-3-fluorophen-yl)amino)piperidine-2,6-dione]
- DC50 (STAT6): 0.6 nM
- EC50 ([1]; Homo sapiens): 0.6 nM

SMILES: CNc1ccn(-c2ccnc3c2cc([C@H](C)N2CC=C(c4c(F)cc(C(=O)N5CCC(CN6CCN(c7ccc(NC8CCC(=O)NC8=O)cc7F)CC6)CC5)cc4F)CC2)n3C)c(=O)c1 (stereo partly drawn) [Example 2g104, 3-((4-(4-((1-(3,5-difluoro-4-(1-((S)-1-(1-methyl-4-(4-(methylamino)-2-oxopyridin-1(2H)-yl)-1H-pyrrolo[2,3-b]pyridin-2-yl)ethyl)-1,2,3,6-tetrahydropyridin-4-yl)benzo-yl)piperidin-4-yl)methyl)-piperazin-1-yl)-3-fluorophen-yl)amino)piperidine-2,6-dione]
- DC50 (STAT6): 3.8 nM
- EC50 ([1]; Homo sapiens): 9 nM

SMILES: CNc1ccn(-c2ccnc3c2cc(CN2CCC(c4c(F)cc(C(=O)N5CCn6nc(CN7CCC(c8ccc(N[C@@H]9CCC(=O)NC9=O)cc8F)CC7)cc6C5)cc4F)CC2)n3C)c(=O)c1 (single isomer, unassigned) [Example 2g102]
- DC50 (STAT6): 1.5 nM
- EC50 ([1]; Homo sapiens): 0.8 nM

SMILES: CNc1ccn(-c2ccnc3c2cc([C@H](C)N2CC=C(c4c(C)cc(C(=O)N5CCn6nc(CC7(O)CCN(c8ccc(NC9CCC(=O)NC9=O)cc8F)CC7)cc6C5)cc4F)CC2)n3C)c(=O)c1 (stereo partly drawn) [Example 2g26, 3-((3-fluoro-4-(4-((5-(3-fluoro-5-methyl-4-(1-((S)-1-(1-methyl-4-(4-(methyl-amino)-2-oxopyridin-1(2H)-yl)-1H-pyrrolo[2,3-b]pyridin-2-yl)ethyl)-1,2,3,6-tetrahydro-pyridin-4-yl)benzoyl)-4,5,6,7-tetrahydropyrazolo[1,5-a]pyr-azin-2-yl)methyl)-4-hydroxy-piperidin-1-yl)phenyl)amino)-piperidine-2,6-dione]
- DC50 (STAT6): 1.5 nM
- EC50 ([1]; Homo sapiens): 0.9 nM

SMILES: CNc1cc(=O)n(-c2ccnc3c2cc(CN2CCC(c4c(F)cc(C(=O)N5CCn6nc(CN7CCC(c8ccc(NC9CCC(=O)NC9=O)c(OC)c8)CC7)cc6C5)cc4F)CC2)n3C)cc1F (centres unmarked) [Example 2g122, 3-((4-(1-((5-(3,5-difluoro-4-(1-((4-(5-fluoro-4-(methyl-amino)-2-oxopyridin-1(2H)-yl)-1-methyl-1H-pyrrolo[2,3-b]pyridin-2-yl)methyl)piperi-din-4-yl)benzoyl)-4,5,6,7-tetrahydropyrazolo[1,5-a]pyr-azin-2-yl)methyl)piperidin-4-yl)-2-methoxyphenyl)amino)-piperidine-2,6-dione]
- DC50 (STAT6): 1.8 nM
- EC50 ([1]; Homo sapiens): 3.6 nM

SMILES: CNc1cc(=O)n(-c2ccnc3c2cc([C@@H](C)N2CC=C(c4c(F)cc(C(=O)N5CCn6nc(CN7CCC(c8ccc(NC9CCC(=O)NC9=O)cc8F)CC7)cc6C5)cc4F)CC2)n3C)cc1F (stereo in doubt) [Example 2g2, 3-((4-(1-((5-(3,5-difluoro-4-(1-((R)-1-(4-(5-fluoro-4-(methylamino)-2-oxopyridin-1(2H)-yl)-1-methyl-1H-pyrrolo[2,3-b]pyridin-2-yl)-ethyl)-1,2,3,6-tetrahydro-pyridin-4-yl)benzoyl)-4,5,6,7-tetrahydropyrazolo[1,5-a]pyrazin-2-yl)methyl)piperi-din-4-yl)-3-fluorophenyl)-amino)piperidine-2,6-dione]
- EC50 ([1]; Homo sapiens): 119 nM

SMILES: CNc1ccn(-c2ccnc3c2cc([C@H](C)N2CC=C(c4c(C)cc(C(=O)N5CCC(CN6CCN(c7cccc(C(=O)NC8CCC(=O)NC8=O)c7)CC6)CC5)cc4F)CC2)n3C)c(=O)c1 (stereo partly drawn) [Example 2g21, N-(2,6-dioxopiperidin-3-yl)-3-(4-((1-(3-fluoro-5-methyl-4-(1-((S)-1-(1-methyl-4-(4-(methylamino)-2-oxopyridin-1(2H)-yl)-1H-pyrrolo[2,3-b]pyridin-2-yl)ethyl)-1,2,3,6-tetrahydropyridin-4-yl)benzo-yl)piperidin-4-yl)methyl)-piperazin-1-yl)benzamide]
- EC50 ([1]; Homo sapiens): 36.4 nM

SMILES: CNc1cc(=O)n(-c2ccnc3c2cc(CN2CC=C(c4c(F)cc(C(=O)N5CCC(CN6CCN(c7ccc(N[C@@H]8CCC(=O)NC8=O)cc7F)CC6)CC5)cc4F)CC2)n3C)cc1F (single isomer, unassigned) [Example 2g67]
- EC50 ([1]; Homo sapiens): 99.4 nM
